Data as given in patent publication US20080081284A1, “OPTICAL INFORMATION RECORDING MEDIUM” (FUJIFILM Corporation, priority 2006, published 2008).

assay: Evaluation of light fastness of dye film; format: physicochemical; conditions: residual dye ratio at absorption λmax 48 hours after Xe light irradiation; dye film on glass plate
Protocol: Dye-containing coating liquids equal to those of Examples 1 to 3, and Comparative Examples 1 to 4 were prepared, and each coating liquid was applied to a 1.1-mm-thick glass plate by a spin coating method under conditions of 23° C. and 50% RH while changing the rotation rate within a range of 500 to 1,000 rpm. The glass plate with the dye film was stored for 24 hours under conditions of 23° C. and 50% RH, and then subjected to a light fastness test using a merry-go-round-type light fastness tester (Cell Tester Model III manufactured by Eagle Engineering, equipped with WG320 Filter manufactured by Schott). The absorption spectrum of the dye film was measured using UV-1600PC manufactured by SHIMADZU immediately before the light fastness test and 48 hours after the light fastness test, and the change of the absorbancy at the maximum absorption wavelength was evaluated.

Row | SMILES | Light fastness of dye film
1 | Cn1nc(C(C)(C)C)c(N=Nc2c(C#N)cnn2-c2cc(C(=O)O)cc(C(=O)O)c2)c1N [Compound (A-1)] | Good (evaluated as “Good” when the ratio was 70% or more and less than 85%)
2 | Cc1nn2nc(C(C)(C)C)c(/N=N/c3c(C#N)cnn3-c3cc(C(=O)O)cc(C(=O)O)c3)c2n1C [Compound (A-7)] | Excellent (Evaluated as “Excellent” when the residual dye ratio was 85% or more at the absorption λmax 48 hours after the irradiation with an Xe light)
3 | CCCCC(CC)COC(=O)Nc1ccc(-c2nn3nc(C(C)(C)C)c(/N=N/c4c(C#N)cnn4-c4cc(C(=O)O)cc(C(=O)O)c4)c3[nH]2)cc1 (stereo not shown) [Compound (C)] | Fair (evaluated as “Fair” when the ratio was 60% or more and less than 70%)
4 | Cc1n[nH]c2c(/N=N/c3c(C#N)c(C(C)(C)C)nn3C)c(C(C)(C)C)nn12 [Compound (D)] | Fair (evaluated as “Fair” when the ratio was 60% or more and less than 70%)
